Publication PMC9721373 (Antiviral Research, 2022)
Structures can show the parent of a compound that is named as a salt. Where two headings read alike, the source gives them in different places.

Key:
rVSVΔG-GFP/VSVG = assay: microbe, parasite or virus in culture; format: cell-based; conditions: for activity at 10 µM: Vesicular stomatitis virus, HEK-293T, 16 h, read-out: rVSVΔG-GFP/VSVG GFP (%)
rVSVΔG-GFP/SARS2-S [1] = assay: microbe, parasite or virus in culture; format: cell-based; conditions: for rVSVΔG-GFP/SARS2-S GFP (%): 10 μM, HEK293T/ACE2, 16 hpi, GFP-positive cells, vehicle-treated = 100%; for activity at 10 µM: Severe acute respiratory syndrome coronavirus 2, HEK-293T, 16 h, read-out: rVSVΔG-GFP/SARS2-S GFP (%)
rVSVΔG-GFP/SARS2-S [2] = assay: microbe, parasite or virus in culture; conditions: Severe acute respiratory syndrome coronavirus 2, HEK-293T
VeroE6/TMPRSS2 cells = conditions: 10 μM, 17.5 h
rVSVΔG-GFP/SARS2-S [3] = system: rVSVΔG-GFP/SARS2-S
[4] = biological target: SARS2-S–NRP-1 binding (rS1 / rNRP-1) (Homo sapiens, UniProt O14786)
purified ACE2 = conditions: read-out: dissociation constant (KD), ref Lu et al., 2021; cited from earlier work
[5] = 10 μM, HEK293T/ACE2, 16 hpi, GFP-positive cells, vehicle-treated = 100%

Chain of SARS2-S–NRP-1 binding (rS1 / rNRP-1) (O14786 22-856): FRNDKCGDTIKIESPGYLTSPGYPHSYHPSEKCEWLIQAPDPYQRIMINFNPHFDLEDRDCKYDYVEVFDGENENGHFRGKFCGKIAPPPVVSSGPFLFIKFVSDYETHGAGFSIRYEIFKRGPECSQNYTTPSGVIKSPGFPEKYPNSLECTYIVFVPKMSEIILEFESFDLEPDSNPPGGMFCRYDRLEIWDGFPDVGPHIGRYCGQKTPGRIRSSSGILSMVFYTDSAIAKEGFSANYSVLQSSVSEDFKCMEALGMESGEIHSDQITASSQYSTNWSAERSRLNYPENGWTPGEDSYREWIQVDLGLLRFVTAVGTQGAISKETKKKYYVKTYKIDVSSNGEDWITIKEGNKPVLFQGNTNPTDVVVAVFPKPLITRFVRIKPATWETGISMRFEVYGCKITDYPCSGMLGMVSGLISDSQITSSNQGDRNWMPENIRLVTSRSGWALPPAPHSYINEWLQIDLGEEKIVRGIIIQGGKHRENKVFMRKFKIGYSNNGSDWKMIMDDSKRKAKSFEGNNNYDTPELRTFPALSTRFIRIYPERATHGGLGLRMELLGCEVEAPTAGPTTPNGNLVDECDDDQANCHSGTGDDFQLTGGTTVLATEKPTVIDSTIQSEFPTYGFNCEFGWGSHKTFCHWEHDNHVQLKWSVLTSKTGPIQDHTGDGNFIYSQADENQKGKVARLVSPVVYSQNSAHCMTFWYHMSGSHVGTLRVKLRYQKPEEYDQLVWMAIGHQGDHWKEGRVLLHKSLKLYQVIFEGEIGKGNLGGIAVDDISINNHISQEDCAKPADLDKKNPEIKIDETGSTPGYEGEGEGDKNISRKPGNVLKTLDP

Row | Compound | rVSVΔG-GFP/SARS2-S Hoechst (%) (HEK293T/ACE2 cells; human) | rVSVΔG-GFP/VSVG Hoechst (%) (HEK293T/ACE2 cells; human) | activity at 10 µM (rVSVΔG-GFP/VSVG) | activity at 10 µM (rVSVΔG-GFP/SARS2-S [1]) | further results
1 | C=CC(=O)Nc1cc(Nc2nccc(-c3cn(C)c4ccccc34)n2)c(OC)cc1N(C)CCN(C)C.CS(=O)(=O)O [AZD-9291 mesylate] | – | – | – | – | rVSVΔG-GFP/SARS2-S Hoechst (%) (HEK293T/ACE2 cells): 98.67%; rVSVΔG-GFP/VSVG Hoechst (%) (HEK293T/ACE2 cells): 98.67%; rVSVΔG-GFP/VSVG GFP (%) (rVSVΔG-GFP/VSVG; [5]): 112.06%; rVSVΔG-GFP/SARS2-S GFP (%) (rVSVΔG-GFP/SARS2-S [1]): 5.36%
2 | CC(CN(C)C)CN1c2ccccc2Sc2ccccc21 (stereo not shown) [Alimemazine tartrate] | – | – | – | – | EC50 (rVSVΔG-GFP/SARS2-S [2]): 2.42 µM; VeroE6/TMPRSS2 cell viability (VeroE6/TMPRSS2 cells): did not affect; SI (CC50/EC50) (rVSVΔG-GFP/SARS2-S [3]): 12.2; NRP1–S1 Binding (Normalized signal intensity) [4]: inhibited
3 | Clc1ccc2c(c1)C(N1CCNCC1)=Nc1ccccc1O2 [Amoxapine] | 102.06% | 99.31% | 116% | 23.7% | –
4 | CN1CC2c3ccccc3Oc3ccc(Cl)cc3C2C1 (stereo not shown) [Asenapine Maleate, Asenapine maleate] | 98.20% | 95.98% | – | – | –
5 | CC[C@H]1OC(=O)[C@H](C)[C@@H](O[C@H]2C[C@@](C)(OC)[C@@H](O)[C@H](C)O2)[C@H](C)[C@@H](O[C@@H]2O[C@H](C)C[C@H](N(C)C)[C@H]2O)[C@](C)(O)C[C@@H](C)CN(C)[C@H](C)[C@@H](O)[C@]1(C)O [Azithromycin dihydrate] | 100.22% | 101.30% | – | – | –
6 | Cc1c(-c2ccc(O)cc2)n(Cc2ccc(OCCN3CCCCCC3)cc2)c2ccc(O)cc12 [Bazedoxifene acetate] | 88.96% | 102.51% | – | – | –
7 | CN(C)CCCN1c2ccccc2Sc2ccc(Cl)cc21 [Chlorpromazine hydrochloride] | – | 97.98% | – | – | Kd (purified ACE2): 13.8 µM
8 | C[C@@H](NCCCc1cccc(C(F)(F)F)c1)c1cccc2ccccc12 [Cinacalcet hydrochloride] | 97.33% | 95.94% | – | – | –
9 | CN1CCC[C@@H]1CCO[C@](C)(c1ccccc1)c1ccc(Cl)cc1 [Clemastine fumarate] | 106.94% | 101.47% | 105% | 12.5% | –
10 | CCCCc1oc2ccc(NS(C)(=O)=O)cc2c1C(=O)c1ccc(OCCCN(CCCC)CCCC)cc1 [Dronedarone hydrochloride] | 99.72% | 101.34% | – | – | –
11 | NC(N)=NCCC[C@H](NC(=O)c1sccc1NS(=O)(=O)c1cccc2nsnc12)C(=O)O [EG00229] | – | – | – | – | concentration required to inhibit SARS2-S–NRP-1 binding [4]: 1 mM
12 | OCCN1CCN(CCCN2c3ccccc3Sc3ccc(C(F)(F)F)cc32)CC1 [Fluphenazine hydrochloride, Fluphenazine dihydrochloride] | 103.35% | 100.59% | 106% | 19.3% | –
13 | Cc1ccc(NC(=O)c2ccc(CN3CCN(C)CC3)cc2)cc1Nc1nccc(-c2cccnc2)n1 [Imatinib Mesylate (STI571), Imatinib Mesylate] | 96.53% | 94.49% | – | 20.8% | rVSVΔG-GFP/VSVG GFP (%) (rVSVΔG-GFP/VSVG): 103.15%
14 | CNCCC=C1c2ccccc2CCc2ccccc21 [Nortriptyline hydrochloride] | 81.23% | 76.77% | 91.7% | 17.4% | –
15 | Fc1ccc([C@@H]2CCNC[C@H]2COc2ccc3c(c2)OCO3)cc1 [Paroxetine hydrochloride] | 102.73% | 98.03% | – | – | –
16 | OCCN1CCN(CCCN2c3ccccc3Sc3ccc(Cl)cc32)CC1 [Perphenazine] | – | 86.64% | – | – | –
17 | CN1CCN(CCCN2c3ccccc3Sc3ccc(Cl)cc32)CC1 [Prochlorperazine Maleate, Prochlorperazine dimaleate] | 97.05% | 93.26% | 131% | 16.6% | –
18 | O=C(c1ccc(OCCN2CCCCC2)cc1)c1c(-c2ccc(O)cc2)sc2cc(O)ccc12 [Raloxifene hydrochloride] | 101.70% | 103.53% | – | – | –
19 | CN[C@H]1CC[C@@H](c2ccc(Cl)c(Cl)c2)c2ccccc21 [Sertraline hydrochloride] | 101.27% | 97.33% | 105% | 15.8% | –
20 | CC/C(=C(\c1ccccc1)c1ccc(OCCN(C)C)cc1)c1ccccc1 [Tamoxifen citrate] | 99.67% | 97.14% | 106% | 16.3% | –
21 | CSc1ccc2c(c1)N(CCC1CCCCN1C)c1ccccc1S2 (stereo not shown) [Thioridazine hydrochloride] | 98.59% | 95.38% | 119% | 15.8% | –
22 | CN(C)CCOc1ccc(/C(=C(/CCCl)c2ccccc2)c2ccccc2)cc1 [Toremifene citrate] | 99.98% | 98.74% | – | – | rVSVΔG-GFP/VSVG GFP (%) (rVSVΔG-GFP/VSVG; [5]): 109.35%; rVSVΔG-GFP/SARS2-S GFP (%) (rVSVΔG-GFP/SARS2-S [1]): 8.32%
23 | CN(C)CCOc1ccc(/C(=C(/CCCl)c2ccccc2)c2ccccc2)cc1 [Toremifene] | 101.27% | 90.44% | – | – | rVSVΔG-GFP/VSVG GFP (%) (rVSVΔG-GFP/VSVG; [5]): 142.24%; rVSVΔG-GFP/SARS2-S GFP (%) (rVSVΔG-GFP/SARS2-S [1]): 21.77%
24 | CN1CCN(CCCN2c3ccccc3Sc3ccc(C(F)(F)F)cc32)CC1 [Trifluoperazine dihydrochloride] | 107.56% | 97.29% | – | – | Kd (purified ACE2): 33.3 µM
25 | CC(CN(C)C)CN1c2ccccc2CCc2ccccc21 (stereo not shown) [Trimipramine maleate] | – | 99.90% | – | – | –
26 | COc1cc2c(Nc3ccc(Br)cc3F)ncnc2cc1OCC1CCN(C)CC1 [Vandetanib (ZD6474), Vandetanib] | 104.11% | 99.04% | – | – | –
